Series [1] deals with HIV-1 laboratory strains. As to the kind of experiment: Laboratory strains, luciferase activity in CEM-NKR-CCR5-Luc cells. The series is classed as cell-based. The procedure: Virus yields were measured in dose-response experiments by either luciferase activity in human T-cells (CEM-NKR-CCR5-Luc), extracellular reverse transcriptase activity in MT-2 cells (T-tropic viruses), or extracellular p24 antigen in PM1 cells (M-tropic viruses).
Multiple-cycle assays using recombinant viruses or clinical isolates were used to assess MI antiviral activity as described previously ([10]). pNLRepRlucP373S (the P373S change is in the Gag gene and converts an outlier polymorphism in the NL4-3 gene to the prevalent amino acid in the population) plasmids containing SDMs in Gag or gag/pr regions from clinical isolates were transfected into HEK 293T cells, and the supernatant containing recombinant virus was harvested after 4 to 5 days. Virus was used to infect MT-2 cells in the presence of a 3-fold serially diluted compound at a final dimethyl sulfoxide (DMSO) concentration of 1%. The inocula of the reporter viruses were determined based on the luciferase activity detected on day 4 postinfection. The MOI (ratio of infectious virions to target cells) of reporter-free laboratory strains and clinical isolates was 0.005, as derived from a tissue culture infectious dose study. Clinical isolates or reporter-free viruses were examined in the reporter CEM-NKR-CCR5-Luc cells or PBMCs at MOIs ranging from 0.005 to 0.01. Each infection started with a drug-free preincubation of the cell-virus mixtures, performed at 37°C and 5% CO2 for either 1 h at 2 times the final cell density (reporter viruses) or 1 h (reporter-free laboratory strains) or 3 h (clinical isolates) using cell pellets in 0.5 mL of medium. After preincubation, cell-virus mixtures were added to compound-containing 96-well plates for a final cell density of either 10,000 (MT-2 cells for reporter viruses), 20,000 (MT-2 and PM1 cells for reporter-free laboratory strains), 200,000 (PBMCs for clinical isolates), or 500,000 (CEM-NKR-CCR5-Luc for reporter-free laboratory strains) cells per well. The CEM-NKR-CCR5-Luc cell assay was performed in the presence of Polybrene (10 μg/mL). Virus growth was determined on days 4 to 5 postinfection for reporter variants or days 5 to 11 for the other viruses. The reporter viruses were detected by a luciferase assay according to manufacturer protocols (Brite-Glo luciferase kit [Promega] for CEM-NKR-CCR5-Luc cells and Dual-Luciferase Reporter 1000 assay system [Promega] for the other cells), and luminescence was detected on a Wallac Trilux. The growth of clinical isolates in PBMCs was quantitated by reverse transcriptase activity in a 96-well scintillation proximity assay (SPA). Twenty microliters of culture supernatants was mixed with 40 μL of reaction cocktail (62.5 mM Tris-HCl [pH 7.8], 100 mM KCl, 0.0625% NP-40, 2.5 mM dithiothreitol [DTT], 6.25 mM MgCl2, 1 mM EGTA, 6.25 μg/mL of poly rA, 2.5 μg/mL of streptavidin SPA beads prebound with biotinylated-dT12-18, and 1 μCi of [^3H]TTP). Mixtures were incubated at 37°C for ∼3 h and quenched with 100 μl of 0.25 M EDTA per well. Luminescence was detected on a Wallac Trilux programmed for tritium counting with SPA beads in opaque plates. The growth of the reporter-free laboratory M-tropic strains and clinical isolates was monitored by a p24 enzyme-linked immunosorbent assay (ELISA; PerkinElmer Life Sciences, Waltham, MA) performed on culture supernatants.
Maximal percent inhibition values were calculated as MPI = 100 – (mean signals at the 2 highest concentrations of compound/mean signal of 2 no-drug control wells) × 100.

For series [2] the following is noted: in vivo, cited from earlier work.
The nature of series [3]: Estimation of minimum plasma concentration required for clinical efficacy. Set-up: species or system human. The note with it: multiples higher than PBA EC90 of the vast majority of HIV-1 isolates. The source says:
These viruses were chosen to be representative of the population of Gag genes as a whole, including known polymorphism-containing viruses with reduced susceptibility to GSK’795, as well as SDM viruses with multiple changes that had previously been identified as relevant for susceptibility to earlier MIs ([7], [11]).

Like-named read-outs stand apart in the source and are kept apart here. Some results are limits rather than exact numbers.

For the molecule `C=C(C)[C@@H]1CC[C@]2(NCCN3CCS(=O)(=O)CC3)CC[C@]3(C)[C@H](CC[C@@H]4[C@@]5(C)CC=C(C6=CC[C@@](CF)(C(=O)O)CC6)C(C)(C)[C@@H]5CC[C@]43C)[C@@H]12` [GSK’254], the EC50 (usually the midpoint of the concentration-response curve) in series [1] (Human immunodeficiency virus 1, 8 HIV-1 laboratory strains (luciferase or p24 endpoints), read-out: mean (standard error of the mean) EC50) was 800 pM; in series [1] (Human immunodeficiency virus 1, 8 HIV-1 laboratory strains, read-out: EC50 range) it was 300 to 1200 pM; in series [1] (Human immunodeficiency virus 1, HXB2, HXB2, T tropic, read-out: EC50 ± SD), 700 ± 100 pM; in series [1] (Human immunodeficiency virus 1, IIIB, IIIB, T tropic, read-out: EC50 ± SD), 600 ± 400 pM; in series [1] (Human immunodeficiency virus 1, LAI, T tropic, read-out: EC50 ± SD), 700 ± 100 pM; in series [1] (Human immunodeficiency virus 1, MN, T tropic, read-out: EC50 ± SD), 300 pM. In addition, the EC50 in series [1] (Human immunodeficiency virus 1, NL43, NL4-3, T tropic, read-out: EC50 ± SD) is 900 ± 200 pM; in series [1] (Human immunodeficiency virus 1, RF, T tropic, read-out: EC50 ± SD), 900 ± 150 pM; in series [1] (Human immunodeficiency virus 1, reporter cell line, read-out: EC50 values for T-tropic HIV-1), < 1000 pM. Besides, the safety and tolerability entry in series [2] (po) was “acceptable safety and tolerability”. In addition, the gastrointestinal intolerability result in series [2] is “only mild gastrointestinal intolerability”. In addition, the “estimated Cmin (target human steady-state serum concentration)” value in series [3] was 150 nM.

These data come from PMC8765437, “GSK3640254 Is a Novel HIV-1 Maturation Inhibitor with an Optimized Virology Profile” (Antimicrobial Agents and Chemotherapy, 2022).
